The record followed here is patent US7300770B2, “Detection of microbe contamination on elastomeric articles” (Kimberly-Clark Worldwide, Inc., priority 2004, dated 2007).

Test [1] deals with aged chicken juice. Nature of the test: N-docosyl merocyanine dye on cotton fabric spotted with aged chicken juice.
Test [2] concerns aged chicken juice. Nature of the test: Comparative dyes dropped onto aged chicken juice on paper towel. The settings on record: aged chicken juice on SCOTT paper towel.
The next test has as its system budgie feces suspension. Nature of the test: N-methyl merocyanine coated towel exposed to budgerigar feces suspension. Particulars: tap water control. From the text:
Budgerigar feces was collected from a caged pet budgie, and shaken in approximately 10 milliliters of Atlanta city domestic tap water.

Test [3] relates to aged urine (approximately 1x10^5 CFU/milliliters). Nature of the test: N-methyl merocyanine coated towel exposed to aged female human urine. The settings on record: aged urine filtered through 0.2-micron filter.
The nature of test [4]: Reichardt's dye and TMB coated towel exposed to dilute bleach. Particulars: towel coated with mixture of Reichardt's dye and TMB.

Molecules are shown by their SMILES.

As for `CCCCCCCCCCCCCCCCCCCCCC[n+]1ccc(C=Cc2ccc(O)cc2)cc1.[Br-]`, the “Color change on spotting aged chicken juice” value in the test with aged chicken juice [1] (orange-yellow dye spots on cotton fabric) is recorded as “color change to very pale yellow”; in the test with aged chicken juice [1] (pinkish-orange areas (dye + NaOH soln.)), “pinkish-orange to very pale yellow”.

Turning to `CC(=O)Nc1ccc(/N=N/c2c(N)ccc3cc(S(=O)(=O)[O-])cc(O)c23)c(S(=O)(=O)[O-])c1.[Na+].[Na+]` [Acid Red 37], in the test with aged chicken juice [2], the “Color change on dropping dye onto aged chicken juice” value is given as “No color changes were observed”. Consider `O=C([O-])C1=NN(c2ccc(S(=O)(=O)[O-])cc2)C(=O)C1N=Nc1ccc(S(=O)(=O)[O-])cc1.[Na+].[Na+].[Na+]` (centres unmarked) [Acid Yellow 23], for which the “Color change on dropping dye onto aged chicken juice” value in the test on aged chicken juice [2] is recorded as “No color changes were observed”. The same measure, in the same setting: then `O=C1/C(=C2\Nc3ccc(S(=O)(=O)[O-])cc3C2=O)Nc2ccc(S(=O)(=O)[O-])cc21.[Na+].[Na+]` [Cl Acid Blue 74], with “No color changes were observed”; and `Cc1ccc(Nc2ccc(Nc3ccc(C)cc3S(=O)(=O)[O-])c3c2C(=O)c2ccccc2C3=O)c(S(=O)(=O)[O-])c1.[Na+].[Na+]` [Cl Acid Green 25], with “No color changes were observed”; and `Cc1ccc(Nc2ccc(Nc3ccc(C)cc3S(=O)(=O)[O-])c3c2C(=O)c2c(O)ccc(O)c2C3=O)c(S(=O)(=O)[O-])c1.[Na+].[Na+]` [Cl Acid Green 41], with “No color changes were observed”. Same read-out and setting: as for `CCN(CC)c1ccc2c(-c3ccc(S(=O)(=O)[O-])cc3S(=O)(=O)[O-])c3ccc(=[N+](CC)CC)cc-3oc2c1.[Na+]` [Cl Acid Red 52], the entry is “No color changes were observed”. With `COc1cc(/C=C/c2cc[n+](C)cc2)ccc1[O-]` [N-methyl merocyanine dye], the “Color change of coated towel” value in the test with budgie feces suspension is “remained orange”; in test [3], “did not cause a color change”.

Turning to `Cc1cc(-c2cc(C)c(N)c(C)c2)cc(C)c1N` [TMB], in test [4], the “Color response to dilute bleach solution” value is on record as “turning orange/yellow color”.
